Laboratory results taken from PubChem BioAssay AID1745844 (Carcinogenic Potency Database (CPDB), 2022).

System: rodent lifetime carcinogenesis bioassay, tumor incidence TD50
Experiment: chronic cancer bioassays in animals – CPDB, compiled studies (AID 1745844)
Details: mouse, strain B6C3F1, inhaled

C=CC=C
TD50 (females, site: Harderian gland, lesion: adenocarcinoma + adenoma + adenoma, bilateral, dosed 83 weeks, study length 104 weeks): 26.2 mg/kg/day | TD50 (females, site: Harderian gland, lesion: adenoma + adenoma, bilateral, dosed 83 weeks, study length 104 weeks): 26.2 mg/kg/day | TD50 (females, site: Zymbal's gland, lesion: adenoma + carcinoma, dosed 83 weeks, study length 104 weeks): 3540 mg/kg/day | TD50 (females, site: all sites + forestomach + Harderian gland + heart + liver + lung + mammary gland + ovary, lesion: histiocytic sarcoma + malignant lymphoma, mixed type + malignant lymphoma, lymphocytic type + malignant lymphoma, undifferenti, dosed 83 weeks, study length 104 weeks): 6.79 mg/kg/day | TD50 (females, site: all sites + forestomach + heart + liver + lung + mammary gland + ovary, lesion: malignant lymphoma, NOS + squamous-cell papilloma + hemangiosarcoma + hepatocellular adenoma + hepatocellular carcinoma + alveolar, dosed 61 weeks, study length 61 weeks): 53 mg/kg/day | TD50 (females, site: all sites, lesion: hemangioma + hemangiosarcoma, dosed 83 weeks, study length 104 weeks): 35 mg/kg/day | TD50 (females, site: all sites, lesion: hemangiosarcoma, dosed 83 weeks, study length 104 weeks): 44.2 mg/kg/day | TD50 (females, site: all sites, lesion: histiocytic sarcoma + malignant lymphoma, mixed type + malignant lymphoma, lymphocytic type + malignant lymphoma, undifferenti, dosed 83 weeks, study length 104 weeks): 27.4 mg/kg/day | TD50 (females, site: all sites, lesion: histiocytic sarcoma, dosed 83 weeks, study length 104 weeks): 125 mg/kg/day | TD50 (females, site: all sites, lesion: malignant lymphoma, NOS, dosed 61 weeks, study length 61 weeks): 270 mg/kg/day | TD50 (females, site: all sites, lesion: malignant lymphoma, lymphocytic type, dosed 83 weeks, study length 104 weeks): 74.9 mg/kg/day | TD50 (females, site: all sites, lesion: malignant lymphoma, mixed type + malignant lymphoma, lymphocytic type + malignant lymphoma, undifferentiated type + malignant, dosed 83 weeks, study length 104 weeks): 35.2 mg/kg/day | TD50 (females, site: any site (literature study), lesion: several types, types named in the paper, dosed 61 weeks, study length 61 weeks): 41.5 mg/kg/day | TD50 (females, site: any site (literature study), lesion: several types, types named in the paper, dosed 83 weeks, study length 104 weeks): 6.28 mg/kg/day | TD50 (females, site: forestomach, lesion: papilloma, NOS + squamous-cell carcinoma + squamous-cell papilloma, dosed 61 weeks, study length 61 weeks): 462 mg/kg/day | TD50 (females, site: forestomach, lesion: papilloma, NOS + squamous-cell papilloma, dosed 61 weeks, study length 61 weeks): 483 mg/kg/day | TD50 (females, site: forestomach, lesion: squamous-cell carcinoma + squamous-cell papilloma, dosed 61 weeks, study length 61 weeks): 396 mg/kg/day | TD50 (females, site: forestomach, lesion: squamous-cell carcinoma + squamous-cell papilloma, dosed 83 weeks, study length 104 weeks): 83.9 mg/kg/day | TD50 (females, site: forestomach, lesion: squamous-cell carcinoma, dosed 83 weeks, study length 104 weeks): 257 mg/kg/day | TD50 (females, site: forestomach, lesion: squamous-cell papilloma, dosed 61 weeks, study length 61 weeks): 461 mg/kg/day | TD50 (females, site: forestomach, lesion: squamous-cell papilloma, dosed 83 weeks, study length 104 weeks): 126 mg/kg/day | TD50 (females, site: heart + liver + subcutaneous tissue, lesion: hemangiosarcoma, dosed 61 weeks, study length 61 weeks): 147 mg/kg/day | TD50 (females, site: heart, lesion: hemangiosarcoma, dosed 61 weeks, study length 61 weeks): 283 mg/kg/day | TD50 (females, site: heart, lesion: hemangiosarcoma, dosed 83 weeks, study length 104 weeks): 104 mg/kg/day | TD50 (females, site: kidney, lesion: tubule adenoma, dosed 83 weeks, study length 104 weeks): 1060 mg/kg/day | TD50 (females, site: liver, lesion: hepatocellular adenoma + hepatocellular carcinoma + neoplastic nodule, dosed 61 weeks, study length 61 weeks): 1170 mg/kg/day | TD50 (females, site: liver, lesion: hepatocellular adenoma + hepatocellular carcinoma + neoplastic nodule, dosed 83 weeks, study length 104 weeks): 22.8 mg/kg/day | TD50 (females, site: liver, lesion: hepatocellular adenoma + hepatocellular carcinoma, dosed 61 weeks, study length 61 weeks): 1170 mg/kg/day | TD50 (females, site: liver, lesion: hepatocellular adenoma + hepatocellular carcinoma, dosed 83 weeks, study length 104 weeks): 22.8 mg/kg/day | TD50 (females, site: liver, lesion: hepatocellular adenoma, dosed 61 weeks, study length 61 weeks): 1590 mg/kg/day | TD50 (females, site: liver, lesion: hepatocellular adenoma, dosed 83 weeks, study length 104 weeks): 28.5 mg/kg/day | TD50 (females, site: liver, lesion: hepatocellular carcinoma, dosed 83 weeks, study length 104 weeks): 50.5 mg/kg/day | TD50 (females, site: lung, lesion: alveolar/bronchiolar adenoma + alveolar/bronchiolar carcinoma + adenocarcinoma, dosed 83 weeks, study length 104 weeks): 12.4 mg/kg/day | TD50 (females, site: lung, lesion: alveolar/bronchiolar adenoma + alveolar/bronchiolar carcinoma, dosed 61 weeks, study length 61 weeks): 203 mg/kg/day | TD50 (females, site: lung, lesion: alveolar/bronchiolar adenoma + alveolar/bronchiolar carcinoma, dosed 83 weeks, study length 104 weeks): 13.8 mg/kg/day | TD50 (females, site: lung, lesion: alveolar/bronchiolar adenoma, dosed 61 weeks, study length 61 weeks): 259 mg/kg/day | TD50 (females, site: lung, lesion: alveolar/bronchiolar adenoma, dosed 83 weeks, study length 104 weeks): 20.3 mg/kg/day | TD50 (females, site: lung, lesion: alveolar/bronchiolar carcinoma + adenocarcinoma, dosed 83 weeks, study length 104 weeks): 23.9 mg/kg/day | TD50 (females, site: lung, lesion: alveolar/bronchiolar carcinoma, dosed 61 weeks, study length 61 weeks): 227 mg/kg/day | TD50 (females, site: mammary gland, lesion: acinar-cell carcinoma, dosed 61 weeks, study length 61 weeks): 1030 mg/kg/day | TD50 (females, site: mammary gland, lesion: adenoacanthoma, dosed 83 weeks, study length 104 weeks): 87.7 mg/kg/day | TD50 (females, site: mammary gland, lesion: adenocarcinoma + adenoacanthoma + mixed tumor, malignant, dosed 83 weeks, study length 104 weeks): 47.4 mg/kg/day | TD50 (females, site: mammary gland, lesion: adenocarcinoma, dosed 83 weeks, study length 104 weeks): 93.3 mg/kg/day | TD50 (females, site: mammary gland, lesion: mixed tumor, malignant, dosed 83 weeks, study length 104 weeks): 2710 mg/kg/day | TD50 (females, site: ovary, lesion: adenoma + mixed tumor, benign, dosed 83 weeks, study length 104 weeks): 78.9 mg/kg/day | TD50 (females, site: ovary, lesion: adenoma, dosed 83 weeks, study length 104 weeks): 217 mg/kg/day | TD50 (females, site: ovary, lesion: granulosa-cell carcinoma + granulosa-cell tumor, dosed 61 weeks, study length 61 weeks): 370 mg/kg/day | TD50 (females, site: ovary, lesion: granulosa-cell carcinoma, dosed 61 weeks, study length 61 weeks): 7580 mg/kg/day | TD50 (females, site: ovary, lesion: granulosa-cell tumor, benign + granulosa-cell tumor, bilateral, dosed 83 weeks, study length 104 weeks): 98 mg/kg/day | TD50 (females, site: ovary, lesion: granulosa-cell tumor, benign + granulosa-cell tumor, malignant, dosed 83 weeks, study length 104 weeks): 65.4 mg/kg/day | TD50 (females, site: ovary, lesion: granulosa-cell tumor, malignant, dosed 83 weeks, study length 104 weeks): 198 mg/kg/day | TD50 (females, site: ovary, lesion: mixed tumor, benign, dosed 83 weeks, study length 104 weeks): 202 mg/kg/day | TD50 (females, site: subcutaneous tissue, lesion: neurofibrosarcoma + sarcoma, dosed 83 weeks, study length 104 weeks): 128 mg/kg/day | TD50 (females, site: subcutaneous tissue, lesion: sarcoma, dosed 83 weeks, study length 104 weeks): 131 mg/kg/day | TD50 (males, site: Harderian gland, lesion: adenocarcinoma + adenocarcinoma, bilateral, dosed 13 weeks, study length 104 weeks): 63.5 mg/kg/day
